Test results as given in article PMC5598522 (Toxicology Reports, 2014).

How the values were obtained:
Plasma exposure = assay type: in vivo, rat; settings: carcinogenicity bioassay, Ticagrelor 180 mg/kg/day
[1] = Quantitative whole body autoradiography; assay type: in vivo, rat; settings: male rat, [3H] Ticagrelor 3 mg/kg

CCCSc1nc(N[C@@H]2C[C@H]2c2ccc(F)c(F)c2)c2nnn([C@@H]3C[C@H](OCCO)[C@@H](O)[C@H]3O)c2n1 [Ticagrelor]
Plasma exposure (mean ± SD) (Plasma exposure; Day 1, 5 h post dose): 35.9 ± 17.9 µM
Plasma exposure (mean ± SD) (Plasma exposure; Week 26, 5 h post dose): 37.9 ± 10.5 µM
Adrenal gland radioactivity ([1]; 5 min): 11.35 μg equivalent/g
Adrenal gland radioactivity, fold of blood value ([1]; 5 min): 5.33 fold of blood value
Blood (LSC) radioactivity ([1]; 5 min): 2.131 μg equivalent/g
Brain radioactivity ([1]; 5 min): 0.05 μg equivalent/g
Brain radioactivity, fold of blood value ([1]; 5 min): 0.02 fold of blood value
Brown fat radioactivity ([1]; 5 min): 1.35 μg equivalent/g
Brown fat radioactivity, fold of blood value ([1]; 5 min): 0.63 fold of blood value
Eye radioactivity ([1]; 5 min): 0.50 μg equivalent/g
Eye radioactivity, fold of blood value ([1]; 5 min): 0.23 fold of blood value
Heart radioactivity ([1]; 5 min): 9.15 μg equivalent/g
Heart radioactivity, fold of blood value ([1]; 5 min): 4.29 fold of blood value
Kidney radioactivity ([1]; 5 min): 10.62 μg equivalent/g
Kidney radioactivity, fold of blood value ([1]; 5 min): 4.98 fold of blood value
Liver radioactivity ([1]; 5 min): 16.11 μg equivalent/g
Liver radioactivity, fold of blood value ([1]; 5 min): 7.56 fold of blood value
Lung radioactivity ([1]; 5 min): 7.31 μg equivalent/g
Lung radioactivity, fold of blood value ([1]; 5 min): 3.43 fold of blood value
Pancreas radioactivity ([1]; 5 min): 7.35 μg equivalent/g
Pancreas radioactivity, fold of blood value ([1]; 5 min): 3.45 fold of blood value
Pituitary gland radioactivity ([1]; 5 min): 8.03 μg equivalent/g
Pituitary gland radioactivity, fold of blood value ([1]; 5 min): 3.77 fold of blood value
Salivary gland radioactivity ([1]; 5 min): 3.66 μg equivalent/g
Salivary gland radioactivity, fold of blood value ([1]; 5 min): 1.72 fold of blood value
Skeletal muscle radioactivity ([1]; 5 min): 3.15 μg equivalent/g
Skeletal muscle radioactivity, fold of blood value ([1]; 5 min): 1.48 fold of blood value
Spinal cord radioactivity ([1]; 5 min): 0.05 μg equivalent/g
Spinal cord radioactivity, fold of blood value ([1]; 5 min): 0.02 fold of blood value
Spleen radioactivity ([1]; 5 min): 4.86 μg equivalent/g
Spleen radioactivity, fold of blood value ([1]; 5 min): 2.28 fold of blood value
Stomach wall radioactivity ([1]; 5 min): 7.11 μg equivalent/g
Stomach wall radioactivity, fold of blood value ([1]; 5 min): 3.34 fold of blood value
Thymus radioactivity ([1]; 5 min): 0.99 μg equivalent/g
Thymus radioactivity, fold of blood value ([1]; 5 min): 0.46 fold of blood value
Thyroid gland radioactivity ([1]; 5 min): 7.84 μg equivalent/g
Thyroid gland radioactivity, fold of blood value ([1]; 5 min): 3.68 fold of blood value
Adrenal gland radioactivity ([1]; 0.5 h): 5.26 μg equivalent/g
Adrenal gland radioactivity, fold of blood value ([1]; 0.5 h): 5.16 fold of blood value
Blood (LSC) radioactivity ([1]; 0.5 h): 1.02 μg equivalent/g
Brain radioactivity ([1]; 0.5 h): 0.04/0.04 μg equivalent/g
Brain radioactivity, fold of blood value ([1]; 0.5 h): 0.04/0.04 fold of blood value
Brown fat radioactivity ([1]; 0.5 h): 0.95 μg equivalent/g
Brown fat radioactivity, fold of blood value ([1]; 0.5 h): 0.93 fold of blood value
Eye radioactivity ([1]; 0.5 h): 0.04/0.04 μg equivalent/g
Eye radioactivity, fold of blood value ([1]; 0.5 h): 0.04/0.04 fold of blood value
Heart radioactivity ([1]; 0.5 h): 4.94 μg equivalent/g
Heart radioactivity, fold of blood value ([1]; 0.5 h): 4.84 fold of blood value
Kidney radioactivity ([1]; 0.5 h): 6.77 μg equivalent/g
Kidney radioactivity, fold of blood value ([1]; 0.5 h): 6.64 fold of blood value
Liver radioactivity ([1]; 0.5 h): 8.44 μg equivalent/g
Liver radioactivity, fold of blood value ([1]; 0.5 h): 8.27 fold of blood value
Lung radioactivity ([1]; 0.5 h): 3.90 μg equivalent/g
Lung radioactivity, fold of blood value ([1]; 0.5 h): 3.82 fold of blood value
Pancreas radioactivity ([1]; 0.5 h): 7.83 μg equivalent/g
Pancreas radioactivity, fold of blood value ([1]; 0.5 h): 7.68 fold of blood value
Pituitary gland radioactivity ([1]; 0.5 h): 7.03 μg equivalent/g
Pituitary gland radioactivity, fold of blood value ([1]; 0.5 h): 6.89 fold of blood value
Salivary gland radioactivity ([1]; 0.5 h): 5.57 μg equivalent/g
Salivary gland radioactivity, fold of blood value ([1]; 0.5 h): 5.46 fold of blood value
Skeletal muscle radioactivity ([1]; 0.5 h): 3.26 μg equivalent/g
Skeletal muscle radioactivity, fold of blood value ([1]; 0.5 h): 3.20 fold of blood value
Spinal cord radioactivity ([1]; 0.5 h): 0.04/0.04 μg equivalent/g
Spinal cord radioactivity, fold of blood value ([1]; 0.5 h): 0.04/0.04 fold of blood value
Spleen radioactivity ([1]; 0.5 h): 3.81 μg equivalent/g
Spleen radioactivity, fold of blood value ([1]; 0.5 h): 3.74 fold of blood value
Stomach wall radioactivity ([1]; 0.5 h): 7.17 μg equivalent/g
Stomach wall radioactivity, fold of blood value ([1]; 0.5 h): 7.03 fold of blood value
Thymus radioactivity ([1]; 0.5 h): 1.28 μg equivalent/g
Thymus radioactivity, fold of blood value ([1]; 0.5 h): 1.25 fold of blood value
Thyroid gland radioactivity ([1]; 0.5 h): 3.85 μg equivalent/g
Thyroid gland radioactivity, fold of blood value ([1]; 0.5 h): 3.77 fold of blood value
Adrenal gland radioactivity ([1]; 2 h): 1.19 μg equivalent/g
Adrenal gland radioactivity, fold of blood value ([1]; 2 h): 2.57 fold of blood value
Blood (LSC) radioactivity ([1]; 2 h): 0.463 μg equivalent/g
Brain radioactivity ([1]; 2 h): 0.02 μg equivalent/g
Brain radioactivity, fold of blood value ([1]; 2 h): 0.04 fold of blood value
Brown fat radioactivity ([1]; 2 h): 0.46 μg equivalent/g
Brown fat radioactivity, fold of blood value ([1]; 2 h): 0.99 fold of blood value
Eye radioactivity ([1]; 2 h): 0.01 μg equivalent/g
Eye radioactivity, fold of blood value ([1]; 2 h): 0.02 fold of blood value
Heart radioactivity ([1]; 2 h): 1.73 μg equivalent/g
